The structures appear in SMILES notation. ≈ marks a conversion by molar mass, not a printed value. Calls of active or inactive are those of the source.

Among the data in ChEMBL document CHEMBL3286384, “Synthesis, cytotoxicity, antimicrobial and anti-biofilm activities of novel pyrazolo[3,4-b]pyridine and pyrimidine functionalized 1,2,3-triazole derivatives” (Bioorg Med Chem Lett, 2014) are MIC, MBC and IC50 values, retold here.

In assay [1] the test system is Pseudomonas aeruginosa. The assay can be described thus: Antimicrobial activity against Pseudomonas aeruginosa MTCC 2453 after 24 hrs by well diffusion method. The assay is classed as functional.
In assay [2] the test system is Candida albicans. The assay can be described thus: microbe, parasite or virus in culture. The note with it: MTCC 3017, 24 h.
Description: (§1) Antimicrobial activity against Candida albicans MTCC 3017 after 24 hrs by well diffusion method
The test system of assay [3] is Staphylococcus aureus. Nature of the assay: Antimicrobial activity against Staphylococcus aureus MLS-16 MTCC 2940 after 24 hrs by well diffusion method. It counts as functional. In general terms: A growth-free zone around the sample is the usual read-out of agar diffusion tests.
In assay [4] the test system is Raoultella planticola. Nature of the assay: Antimicrobial activity against Klebsiella planticola MTCC 530 after 24 hrs by well diffusion method. The assay is classed as functional.
The subject of assay [5] is Bacillus subtilis. Nature of the assay: Antimicrobial activity against Bacillus subtilis MTCC 121 after 24 hrs by well diffusion method. It counts as functional.
Assay [6] deals with Escherichia coli. The assay can be described thus: Antimicrobial activity against Escherichia coli MTCC 739 after 24 hrs by well diffusion method. It counts as functional.
The test system of assay [7] is Staphylococcus aureus. Nature of the assay: Antimicrobial activity against Staphylococcus aureus MTCC 96 after 24 hrs by well diffusion method. It counts as functional.
The test system of assay [8] is Micrococcus luteus. The assay can be described thus: Antimicrobial activity against Micrococcus luteus MTCC 2470 after 24 hrs by well diffusion method. The assay is classed as functional.
Assay [9] relates to Escherichia coli. The assay can be described thus: Bactericidal activity against Escherichia coli MTCC 739 after 24 hrs by agar plating method. The conditions noted are these: MTCC 739, 24 h. It counts as functional.
In assay [10] the test system is Staphylococcus aureus. Nature of the assay: Antimicrobial activity against Staphylococcus aureus MTCC 96 assessed as inhibition of biofilm formation after 24 hrs by crystal violet staining-based assay. It counts as functional, organism-based. The conditions noted are these: MTCC 96, 24 h.
The next assay concerns A549. The assay can be described thus: Cytotoxicity against human A549 cells after 24 hrs by MTT assay. It counts as functional, cell-based. The note with it: A549, 24 h. A general note: Formazan colour is commonly taken as a measure of viable cells.
Assay [11] relates to Candida albicans. The note with it: MTCC 3017.
Description: as §1
In a further assay the test system is DU-145. Nature of the assay: Cytotoxicity against human DU145 cells after 24 hrs by MTT assay. It counts as functional, cell-based. The conditions noted are these: DU-145, 24 h.
Assay [12] deals with Staphylococcus aureus. Nature of the assay: Bactericidal activity against Staphylococcus aureus MTCC 96 after 24 hrs by agar plating method. The assay is classed as functional. The conditions noted are these: MTCC 96, 24 h.
For assay [13], the system named is Raoultella planticola. The assay can be described thus: Antimicrobial activity against Klebsiella planticola MTCC 530 assessed as inhibition of biofilm formation after 24 hrs by crystal violet staining-based assay. The assay is classed as functional, organism-based. The conditions noted are these: MTCC 530, 24 h.
Assay [14] has as its system Staphylococcus aureus. The assay can be described thus: Antimicrobial activity against Staphylococcus aureus MLS-16 MTCC 2940 assessed as inhibition of biofilm formation after 24 hrs by crystal violet staining-based assay. The assay is classed as functional, organism-based. The conditions noted are these: MLS-16 MTCC 2940, 24 h.
In assay [15] the test system is Staphylococcus aureus. Nature of the assay: Bactericidal activity against Staphylococcus aureus MLS-16 MTCC 2940 after 24 hrs by agar plating method. It counts as functional. The note with it: MLS-16 MTCC 2940, 24 h.
Assay [16] has as its system Micrococcus luteus. The assay can be described thus: Antimicrobial activity against Micrococcus luteus MTCC 2470 assessed as inhibition of biofilm formation after 24 hrs by crystal violet staining-based assay. The assay is classed as functional, organism-based. The note with it: MTCC 2470, 24 h.
Assay [17] deals with Bacillus subtilis. Nature of the assay: Bactericidal activity against Bacillus subtilis MTCC 121 after 24 hrs by agar plating method. It counts as functional. The note with it: MTCC 121, 24 h.
The test system of assay [18] is Raoultella planticola. The assay can be described thus: Bactericidal activity against Klebsiella planticola MTCC 530 after 24 hrs by agar plating method. It counts as functional. The note with it: MTCC 530, 24 h.
Assay [19] relates to Pseudomonas aeruginosa. The assay can be described thus: Antimicrobial activity against Pseudomonas aeruginosa MTCC 2453 assessed as inhibition of biofilm formation after 24 hrs by crystal violet staining-based assay. It counts as functional, organism-based. The conditions noted are these: MTCC 2453, 24 h.
The subject of another assay is HeLa. Nature of the assay: Cytotoxicity against human HeLa cells after 24 hrs by MTT assay. The assay is classed as functional, cell-based.
The subject of the next assay is MCF7. Nature of the assay: Cytotoxicity against human MCF7 cells after 24 hrs by MTT assay. It counts as functional, cell-based. The conditions noted are these: MCF7, 24 h.
The subject of assay [20] is Micrococcus luteus. Nature of the assay: Bactericidal activity against Micrococcus luteus MTCC 2470 after 24 hrs by agar plating method. It counts as functional. The conditions noted are these: MTCC 2470, 24 h.
Assay [21] relates to Pseudomonas aeruginosa. Nature of the assay: Bactericidal activity against Pseudomonas aeruginosa MTCC 2453 after 24 hrs by agar plating method. The assay is classed as functional. The conditions noted are these: MTCC 2453, 24 h.

Regarding `Clc1ccc(COC(Cn2ccnc2)c2ccc(Cl)cc2Cl)c(Cl)c1` (stereo not given) [MICONAZOLE], the MIC result in the assay on Pseudomonas aeruginosa [1], in the assay on Staphylococcus aureus [3], in the assay on Raoultella planticola [4], in the assay on Bacillus subtilis [5], in the assay on Escherichia coli [6] and in the assay with Staphylococcus aureus [7] was “inactive” each time. Moreover, the MIC result in the assay with Micrococcus luteus [8] was “inactive”. Further, in the assay on Candida albicans [2], the MIC was found to be 7.8 µg/mL (≈ 18.7 µM).

One may read the MBC as the smallest concentration meeting the test's criterion for killing. As a reminder, the IC50 is the concentration at which inhibition is half-maximal. Regarding `CCCCCCCCCCn1nc(-n2cc(COc3cc(C(F)(F)F)nc(N)n3)nn2)c2ccc(C(F)(F)F)nc21`, the MBC worked out at 15.6 µg/mL (≈ 26.6 µM) against Escherichia coli [9]; 15.6 µg/mL (≈ 26.6 µM) against Staphylococcus aureus [12]; 7.8 µg/mL (≈ 13.3 µM) in the assay with Staphylococcus aureus [15]; 31.2 µg/mL (≈ 53.3 µM) in the assay with Bacillus subtilis [17]; 7.8 µg/mL (≈ 13.3 µM) in the assay with Raoultella planticola [18]; 15.6 µg/mL (≈ 26.6 µM) in the assay with Micrococcus luteus [20]. Besides, the MBC in the assay on Pseudomonas aeruginosa [21] stood at 15.6 µg/mL (≈ 26.6 µM). Also, the concentration for half-maximal inhibition (IC50) turned out to be 7.8 µg/mL (≈ 13.3 µM) in the assay with Staphylococcus aureus [10]; 4.2 µM in the assay with A549; 5.8 µM in the assay with DU-145; 3.9 µg/mL (≈ 6.66 µM) with Raoultella planticola [13]; 3.9 µg/mL (≈ 6.66 µM) in the assay on Staphylococcus aureus [14]; 3.9 µg/mL (≈ 6.66 µM) with Micrococcus luteus [16]. Further, the IC50 amounted to 3.9 µg/mL (≈ 6.66 µM) with Pseudomonas aeruginosa [19], 34.3 µM with HeLa and 37.2 µM in the assay with MCF7. Besides, the MIC came out at 7.8 µg/mL (≈ 13.3 µM) with Pseudomonas aeruginosa [1] (MTCC 2453, 24 h); 7.8 µg/mL (≈ 13.3 µM) in the assay with Staphylococcus aureus [3] (MLS-16 MTCC 2940, 24 h); 7.8 µg/mL (≈ 13.3 µM) against Raoultella planticola [4] (MTCC 530, 24 h); 15.6 µg/mL (≈ 26.6 µM) against Bacillus subtilis [5] (MTCC 121, 24 h); 7.8 µg/mL (≈ 13.3 µM) against Escherichia coli [6] (MTCC 739, 24 h); 7.8 µg/mL (≈ 13.3 µM) with Staphylococcus aureus [7] (MTCC 96, 24 h). The same molecule registered an MIC against Micrococcus luteus [8] (MTCC 2470, 24 h) of 15.6 µg/mL (≈ 26.6 µM). Further, the MIC result with Candida albicans [11] was “inactive”.

As for `Nc1nc(OCc2cn(-c3n[nH]c4nc(C(F)(F)F)ccc34)nn2)cc(C(F)(F)F)n1`, the MBC in the assay on Escherichia coli [9] was determined as 7.8 µg/mL (≈ 17.5 µM); against Staphylococcus aureus [12] it was 31.2 µg/mL (≈ 70.1 µM); against Staphylococcus aureus [15] it was 31.2 µg/mL (≈ 70.1 µM); against Bacillus subtilis [17] it was 31.2 µg/mL (≈ 70.1 µM); in the assay on Raoultella planticola [18] it was 31.2 µg/mL (≈ 70.1 µM); against Micrococcus luteus [20] it was 15.6 µg/mL (≈ 35 µM). The molecule also showed an MBC in the assay with Pseudomonas aeruginosa [21] of 15.6 µg/mL (≈ 35 µM). Moreover, the half-inhibitory concentration (IC50) in the assay with Staphylococcus aureus [10] was 7.8 µg/mL (≈ 17.5 µM); with A549, 22.8 µM; with DU-145, 28.9 µM; in the assay on Raoultella planticola [13] it was 7.8 µg/mL (≈ 17.5 µM); in the assay with Staphylococcus aureus [14], 7.8 µg/mL (≈ 17.5 µM); in the assay with Micrococcus luteus [16] it was 7.8 µg/mL (≈ 17.5 µM). Besides, the IC50 in the assay on Pseudomonas aeruginosa [19] is 3.9 µg/mL (≈ 8.76 µM); with HeLa, over 100 µM; in the assay with MCF7, over 100 µM. The MIC was determined as 7.8 µg/mL (≈ 17.5 µM) with Pseudomonas aeruginosa [1] (MTCC 2453, 24 h); 15.6 µg/mL (≈ 35 µM) in the assay on Staphylococcus aureus [3] (MLS-16 MTCC 2940, 24 h); 15.6 µg/mL (≈ 35 µM) in the assay on Raoultella planticola [4] (MTCC 530, 24 h); 15.6 µg/mL (≈ 35 µM) with Bacillus subtilis [5] (MTCC 121, 24 h); 7.8 µg/mL (≈ 17.5 µM) against Escherichia coli [6] (MTCC 739, 24 h); 15.6 µg/mL (≈ 35 µM) with Staphylococcus aureus [7] (MTCC 96, 24 h). In the assay with Micrococcus luteus [8] (MTCC 2470, 24 h), the MIC was 7.8 µg/mL (≈ 17.5 µM). In addition, in the assay with Candida albicans [11], the MIC entry was “inactive”.

On to `CCOC(=O)Cn1nc(-n2cc(COc3cc(C(F)(F)F)nc(N)n3)nn2)c2ccc(C(F)(F)F)nc21`, for which the minimal bactericidal concentration (MBC) was 31.2 µg/mL (≈ 58.7 µM) against Escherichia coli [9]; 15.6 µg/mL (≈ 29.4 µM) against Staphylococcus aureus [12]; 15.6 µg/mL (≈ 29.4 µM) in the assay on Staphylococcus aureus [15]; 15.6 µg/mL (≈ 29.4 µM) with Bacillus subtilis [17]; 15.6 µg/mL (≈ 29.4 µM) in the assay with Raoultella planticola [18]; 15.6 µg/mL (≈ 29.4 µM) against Micrococcus luteus [20]. Also, the MBC in the assay on Pseudomonas aeruginosa [21] came to 15.6 µg/mL (≈ 29.4 µM). Moreover, the IC50 amounted to 3.9 µg/mL (≈ 7.34 µM) in the assay with Staphylococcus aureus [10]; 16.3 µM in the assay on A549; 18.2 µM in the assay on DU-145; 3.9 µg/mL (≈ 7.34 µM) with Raoultella planticola [13]; 7.8 µg/mL (≈ 14.7 µM) with Staphylococcus aureus [14]; 7.8 µg/mL (≈ 14.7 µM) with Micrococcus luteus [16]. For the same molecule, the IC50 was 15.6 µg/mL (≈ 29.4 µM) in the assay with Pseudomonas aeruginosa [19], 9.8 µM with HeLa and 12.4 µM in the assay on MCF7. The MIC amounted to 15.6 µg/mL (≈ 29.4 µM) against Pseudomonas aeruginosa [1] (MTCC 2453, 24 h); 7.8 µg/mL (≈ 14.7 µM) with Staphylococcus aureus [3] (MLS-16 MTCC 2940, 24 h); 7.8 µg/mL (≈ 14.7 µM) in the assay on Raoultella planticola [4] (MTCC 530, 24 h); 15.6 µg/mL (≈ 29.4 µM) in the assay with Bacillus subtilis [5] (MTCC 121, 24 h); 15.6 µg/mL (≈ 29.4 µM) with Escherichia coli [6] (MTCC 739, 24 h); 15.6 µg/mL (≈ 29.4 µM) against Staphylococcus aureus [7] (MTCC 96, 24 h). Moreover, the MIC in the assay on Micrococcus luteus [8] (MTCC 2470, 24 h) was over 250 µg/mL. Further, the MIC result in the assay on Candida albicans [11] is “inactive”.
